From PMC9820118, “Betulin Acid Ester Derivatives Inhibit Cancer Cell Growth by Inducing Apoptosis through Caspase Cascade Activation: A Comprehensive In Vitro and In Silico Study” (International Journal of Molecular Sciences, 2022)

Experiments:
[1] = Cytotoxicity, SRB assay, normal BALB/3T3 fibroblasts; conditions: mouse
Method: (§3) The in vitro antiproliferative activity tests have been conducted against four human cancer cell lines: MV4-11 biphenotypic B myelomonocytic leukemia cell line, A549 lung carcinoma cell line, MCF-7 breast carcinoma cell line, PC-3 prostate carcinoma cell line and one normal BALB/3T3 mouse fibroblast cell line. […] All tested compounds were dissolved in DMSO and diluted with a culture medium to a desired concentration. […] Cell viability, after 72 h incubation of the cells with tested compounds, was determined using tetrazolinum dye MTT (for MV4-11 cells) or sulforhodamine B (SRB test, for MCF-7, A549, PC-3, BALB/3T3 cells) colorimetric assays.
(§4) Human biphenotypic B myelomonocytic leukemia MV4-11, murine normal fibroblast BALB/3T3 cells were obtained from the American Type Culture Collection (USA); and human lung carcinoma A549, human breast cancer MCF-7 and human prostate adenocarcinoma PC-3 were obtained from the European Collection of Authenticated Cell Cultures (UK).
(§5) MV4-11 and PC-3 cells were cultured in RPMI 1640 medium (HIIET PAS, Poland) with 1.0 mM sodium pyruvate (only MV4-11) and 10% fetal bovine serum (FBS) (all from Merck, Darmstadt, Germany). A549 cells were cultured in RPMI 1640 + Opti-MEM (1:1) ((HIIET PAS, Poland and Gibco, UK) supplemented with 5% fetal bovine serum (Merck, Darmstadt, Germany). The MCF-7 cells were cultured in Eagle medium (HIIET PAS, Poland) supplemented with 8 mg/mL of insulin and 1% of MEM NON-Essential amino acid (all Merck, Darmstadt, Germany). Normal fibroblasts BALB/3T3 cells were cultured in DMEM medium (Gibco, UK) supplemented with 10% fetal bovine serum and 1.0 mM sodium pyruvate (all from Merck, Darmstadt, Germany). All culture media were supplemented with 2 mM L-glutamine (Merck, Darmstadt, Germany), 100 units/ml penicillin, (Polfa Tarchomin S.A., Poland) and 100 µg/mL streptomycin (Merck, Darmstadt, Germany). All cell lines were grown at 37 °C in a 5% CO2 humidified atmosphere.
(§6) The solutions of the tested compounds were prepared by dissolving the substances in DMSO to the desired concentration (25 mM). Then, the tested compounds were diluted in a culture medium to reach the final concentrations. Before addition of the tested compounds (24 h prior), the cells were plated in 96-well plates (Sarstedt, Germany) at a density of 1 × 10^4, 0.75 × 10^4 (MCF-7) or 0.5 × 10^4 (A549) cells per well. The assay was performed after 72 h of exposure to 100, 10, 1 and 0.1 µM concentration of the tested agents. […] The SRB method determined the amount of cellular proteins. The concentration of the colorimetric probe (formazan in MTT or sulforhodamine B in SRB method) was determined by an optical density measurement using a standard microplate reader for 96-well plates. After optical density measurement, using the data of the mean absorbances of control cells (AbCC), the absorbances of cells treated by the tested compound (AbTr) (for each concentration separately) and the absorbance of the cultured medium (AbCM) the % of cell proliferation inhibition was calculated according to the following formula: % inh. cells proliferation=100−AbTr−AbCM/AbCC−AbCM×100
(§7) From the obtained proliferation inhibition values, effect-concentration curves of the compound used were plotted. […] IC50 values were calculated for each experiment separately using the Prolab-3 system based on Cheburator 0.4 software [36] and mean values (±SD) are presented. Each compound in each concentration was tested in triplicate in a single experiment, which was repeated 3–5 times.

[2] = tested on: A549 cell line; test: Antiproliferative activity, SRB assay, A549 lung carcinoma cells; conditions: for IC50: Homo sapiens, A549, 72 h, read-out: Cytotoxicity IC50 against A549 cell line; for Calculated Selectivity Index SI, A549: IC50 BALB/3T3 / IC50 A549; for Antiproliferative Activity, A549: +/− summary, IC50 vs betulin 1
Method: as §3, §4, §5, §6, §7

[3] = tested on: PC-3 cell line; test: Antiproliferative activity, SRB assay, PC-3 prostate carcinoma cells; conditions: for IC50: Homo sapiens, PC-3, 72 h, read-out: Cytotoxicity IC50 against PC-3 cell line; for Calculated Selectivity Index SI, PC-3: IC50 BALB/3T3 / IC50 PC-3
[4] = tested on: MCF-7 cell line; test: Antiproliferative activity, SRB assay, MCF-7 breast carcinoma cells; conditions: for IC50: Homo sapiens, MCF7, 72 h, read-out: Cytotoxicity IC50 against MCF-7 cell line; for Calculated Selectivity Index SI, MCF-7: IC50 BALB/3T3 / IC50 MCF-7
Method: as §3, §4, §5, §6, §7

[5] = tested on: MV4-11 cells; test: Antiproliferative activity, MTT assay, MV4-11 leukemia cells; type: cell-based, human; conditions: for IC50: Homo sapiens, MV4-11, 72 h, 72 h incubation, MTT, read-out: Growth inhibition IC50, leukemia cell line MV4-11; for Calculated Selectivity Index SI, MV4-11: IC50 BALB/3T3 / IC50 MV4-11
[6] = Experimental lipophilicity by RP-TLC; conditions: RP-TLC, RP-18 F254S, acetone / Tris buffer pH 7.4, extrapolated to zero acetone
[7] = Solubility in DMSO for stock preparation; type: physicochemical
[8] = tested on: PC-3 cells; test: Induction of apoptosis, Annexin V/PI staining, PC-3; type: cell-based, human; conditions: about 1.5 × IC50, 72 h
Text: Apoptosis is one of a cell’s natural mechanisms for programmed cell death. It plays a crucial role in homeostasis by eliminating the unwanted or unnecessary cells. One of the most important functions of apoptosis is prevention of cancer. However, cancer cells often lose the ability to enter the path of apoptosis, which allows them to survive longer and grow in an uncontrolled manner. Regardless of that, apoptosis still remains the most important molecular mechanism to combat cancer cells; therefore, research is conducted to obtain agents with the ability to selectively induce apoptosis in cancer cell lines.
The MV4-11, A549 and PC-3 cells were seeded on 24-well plates (Sarstedt, Germany) for a final volume of 1.5 mL. […] After incubation, the cells were collected and 2 × 10^5 of cells were washed twice with PBS. […] Results were analyzed using Flowing software 2.5.1. […]

[9] = tested on: caspase-3/7; test: Caspase-3/7 activity (AC-DEVD-AMC substrate) in A549 cells; type: cell-based, human; design: key: +: plus mark represents statistically important elevated activity of caspase 3/7 compared to control
Text: (§1) Caspase-3 and caspase-7 are cysteine-aspartic acid proteases that can directly execute apoptosis […] sequential activation of caspase-8 or caspase-9. Activation of these enzymes leads to apoptotic cell death; thus, measuring their activity is a good method to determine the pro-apoptotic potential of tested compounds. One of the mechanisms of betulin’s antiproliferative activity is activation of these enzymes; therefore, to further examine the mechanism of action of tested derivatives, we decided to determine their levels.
(§2) The MV4-11, A549 and PC-3 cells were seeded on 48-well plates for a final volume of 1 mL. […] After incubation, the cells were collected and centrifuged (5 min., 4 °C, 250× g). Cells were suspended in 50 µL of ice-cold lysis buffer (50 mM HEPES, 10% (w/v) sucrose, 150 mM NaCl, 2 mM EDTA and 1% (v/v) Triton X-100, pH 7.3, HIIET, Poland) and incubated 30 min. at […]. After the incubation, 40 µL of each sample was transferred to a white, 96-well plate (Corning, CA, USA) containing 160 µL of the reaction buffer (20 mM HEPES, 10 % sucrose, 100 mM NaCl, 1 mM EDTA, 10 mM DTT, 0.02 % Trition X-100, pH 7.3) (HIIET, Wroclaw, Poland) with 9 µM AC-DEVD-AMC (Cayman Chemical) fluorogenic substrate (λex = 360 nm, λem = 460 nm). The fluorescence increase correlated with the caspase-3/7 level was continuously recorded at 37 °C for 120 min using a Biotek Synergy H4 (Biokom, Warsaw, Poland). Compounds were tested in duplicates in a single experiment and each experiment was repeated at least three times independently. Results were normalized to the number of cells in each well and are reported as mean relative caspase-3/7 activity compared to the untreated control sample ± SD.

[10] = tested on: caspase-3/7; test: Caspase-3/7 activity (AC-DEVD-AMC substrate) in PC-3 cells; type: cell-based, human; design: key to Caspase 3/7 Activity, PC-3: +: plus mark represents statistically important elevated activity of caspase 3/7 compared to control
Text: as §1, §2

[11] = in vitro; conditions: mouse
Method: as §3, §4, §5, §6, §7

[12] = tested on: A549 cells; test: Cell cycle analysis, PI staining flow cytometry, A549; type: cell-based, human; conditions: about IC50, 72 h
Method: The effects of the selected derivatives on the cell cycle were analyzed by flow cytometry using PI staining.
The MV4-11, A549 and PC-3 cells were seeded on 24-well plates (Sarstedt, Germany) for a final volume of 1.5 mL. […] After incubation, the cells were collected and 1 × 10^6 of cells were washed twice in cold PBS and fixed for 24 h in 70% ethanol at −20 °C, the cells were washed twice in PBS and incubated with RNAse (8 μg/mL, Fermentas, Germany) at 37 °C for 1 h. The cells were stained for 30 min. with propidium iodide (50 μg/mL, Sigma Aldrich, Germany) at 4 °C and the cellular DNA content was analyzed by flow cytometry using BD LSRFortessa cytometer (BD Bioscience, San Jose, CA, USA). Compounds at each concentration were tested at least three times independently. The obtained results were analyzed using Flowing software 2.5.1 (Cell Imaging Core, Turku Centre for Biotechnology, University of Turku and Åbo Akademi University, Turku, Finland).

[13] = tested on: caspase-3/7; test: Caspase-3/7 activity (AC-DEVD-AMC substrate) in MV4-11 cells; type: cell-based, human
Text: as §1
The MV4-11, A549 and PC-3 cells were seeded on 48-well plates for a final volume of 1 mL. […] After incubation, the cells were collected and centrifuged (5 min., 4 °C, 250× g). Cells were suspended in 50 µL of ice-cold lysis buffer (50 mM HEPES, 10% (w/v) sucrose, 150 mM NaCl, 2 mM EDTA and 1% (v/v) Triton X-100, pH 7.3, HIIET, Poland) and incubated 30 min. at 40 °C. […] The fluorescence increase correlated with the caspase-3/7 level was continuously recorded at 37 °C for 120 min using a Biotek Synergy H4 (Biokom, Warsaw, Poland). […]

[14] = design: method as in earlier work; conditions: literature lipophilicity of RP-TLC reference compounds; cited from earlier work
[15] = 1.5 × IC50, 24 h, several-fold lower at 72 h

Structure (SMILES) | IC50 [2] | Calculated Selectivity Index SI, A549 [2] | IC50 [3] | Calculated Selectivity Index SI, PC-3 [3] | IC50 [4] | Calculated Selectivity Index SI, MCF-7 [4] | IC50 [5] | Calculated Selectivity Index SI, MV4-11 [5] | RM0 [6] | solubility in DMSO [7] | IC50 at 72 h [11] | other results
C=C(C)[C@@H]1CC[C@]2(CO)CC[C@]3(C)[C@H](CC[C@@H]4[C@@]5(C)CC[C@H](O)C(C)(C)[C@@H]5CC[C@]43C)[C@@H]12 [Betulin 1, betulin] | 15.5 µM | 2.0 | 32.5 µM | 1.0 | 38.8 µM | 0.8 | 18.2 µM | 1.8 |  |  |  | IC50 at 72 h [1]: 31.8 µM
COc1cccc2c1C(=O)c1c(O)c3c(c(O)c1C2=O)C[C@@](O)(C(=O)CO)C[C@@H]3O[C@H]1C[C@H](N)[C@H](O)[C@H](C)O1 [Doxorubicin, doxorubicin, reference compound] | 0.04 µM | 4.5 | 0.43 µM | 0.4 | 0.08 µM | 2.3 | 0.01 µM | 18.0 |  |  |  | IC50 at 72 h ([1]; BALB/3T3 normal fibroblast cells): 0.18 µM
C=C(C)[C@@H]1CC[C@]2(COC(=O)CCCC(=O)N3CCCCC3)CC[C@]3(C)C(CCC4[C@@]5(C)CC[C@H](O)C(C)(C)C5CC[C@]43C)C12 (stereo partly shown) [4c] |  |  |  |  |  |  |  |  | 5.012 | not soluble in DMSO |  | 
C=C(C)[C@@H]1CC[C@]2(COC(=O)CCC(=O)N3CCOCC3)CC[C@]3(C)C(CCC4[C@@]5(C)CC[C@H](O)C(C)(C)C5CC[C@]43C)C12 (stereo partly shown) [2b] | 8.03 µM | 3.1 | 17.9 µM | 1.4 | 19.3 µM | 1.3 | 3.94 µM | 6.4 | 5.024 |  | 25 µM | Induction of apoptosis (AnV/PI), PC-3, 72 h [8]: shifting the ratio of the living cell population towards apoptotic and necrotic ones; caspase 3/7 activity, A549 [9, 15]: hugely elevated caspase 3/7 activity; caspase 3/7 activity, A549 ([9]; +/− summary vs control): +; Antiproliferative Activity, A549 [2]: +; caspase-3/7 activity, PC-3 ([10]; 1.5 × IC50, 24 and 72 h): very high level of caspase-3/7 after 24 and 72 h; Caspase 3/7 Activity, PC-3 ([10]; +/− summary vs control): +; Antiproliferative Activity, PC-3 ([3]; +/− summary, IC50 vs betulin 1): +
C=C(C)[C@@H]1CC[C@]2(COC(=O)c3cccc(C(=O)N4CCCCC4)c3)CC[C@]3(C)C(CCC4[C@@]5(C)CC[C@H](O)C(C)(C)C5CC[C@]43C)C12 (stereo partly shown) [7c] |  |  |  |  |  |  |  |  | 5.773 | not soluble in DMSO |  | 
C=C(C)[C@@H]1CC[C@]2(COC(=O)CCC(=O)N3CCSCC3)CC[C@]3(C)C(CCC4[C@@]5(C)CC[C@H](O)C(C)(C)C5CC[C@]43C)C12 (stereo partly shown) [2d] | 32 µM | 1.6 | 50 µM | 1.0 | 50 µM | 1.0 | 3.16 µM | 15.8 | 5.898 |  | > 50 µM | Influence on cell cycle, A549, 72 h [12]: greater percentage of dead cells with a decrease in G2/M and G0/G1 phases; caspase-3/7 levels, MV4-11, 24 h [13]: increased levels of caspase-3/7
c1ccc(CCc2ccccc2)cc1 [dibenzyl, reference compound] |  |  |  |  |  |  |  |  | 3.54 |  |  | LogPlit [14]: 4.49
C=C(C)[C@@H]1CC[C@]2(COC(=O)CCCCCCCCCC(=O)N3CCCCC3)CC[C@]3(C)C(CCC4[C@@]5(C)CC[C@H](O)C(C)(C)C5CC[C@]43C)C12 (stereo partly shown) [5c] |  |  |  |  |  |  |  |  | 5.768 | not soluble in DMSO |  | 
C=C(C)[C@@H]1CC[C@]2(COC(=O)CCC(=O)N3CCCCC3)CC[C@]3(C)C(CCC4[C@@]5(C)CC[C@H](O)C(C)(C)C5CC[C@]43C)C12 (stereo partly shown) [2c] | 6.98 µM | 4.7 | 30.9 µM | 1.1 | 22.2 µM | 1.5 | 5.78 µM | 5.7 | 5.728 |  | 32.7 µM | Influence on cell cycle, A549, 72 h [12]: induced cycle arrest in the G0/G1 phase with a decrease in the G2/M phase; caspase 3/7 activity, A549 [9, 15]: hugely elevated caspase 3/7 activity; caspase 3/7 activity, A549 ([9]; +/− summary vs control): +; Antiproliferative Activity, A549 [2]: +; caspase-3/7 levels, MV4-11, 24 h [13]: increased levels of caspase-3/7
